# Experimental data taken from patent US20130109646A1, “METHOD FOR TREATING GLAUCOMA OR OCULAR HYPERTENSION WITH AN ADENOSINE DERIVATIVE” (priority 2007, published 2013).
# Experiments:
# intraocular pressure [1] = test: Test for intraocular pressure reduction using cynomolgus monkeys; type: in vivo; conditions: male cynomolgus monkeys; for Maximum intraocular pressure reduction degree: 0.1% (w/v) test liquid instilled into one eye twice a day for 7 days, maximum over 2, 4, 6, 8 h after administration (Compound B: pH 7, 1, 2, 4, 6 h), average of 5 to 6 cases
# Description: In order to examine the usefulness of the present compound as a preventive or therapeutic agent for glaucoma or ocular hypertension, an intraocular pressure lowering effect when the present compound was administered to cynomolgus monkeys (sex: male) was evaluated and studied. As the test compound, Compound A, Compound B, Compound C, Compound D, Compound E, Compound F, Compound G, Compound H and Compound I were used.
# 1) Just before a test liquid was administered, one drop of 0.4% oxybuprocaine hydrochloride eye drop was instilled into both eyes of each experimental animal to achieve local anesthesia, and the intraocular pressure was measured using an applanation tonometer. This intraocular pressure was determined as an initial intraocular pressure.
# 2) A 0.1% (w/v) test liquid (a solution or suspension) was prepared, and the test liquid was instilled into one eye of each experimental animal twice a day for 7 days. The other eye was left untreated, or a vehicle was instilled into the eye according to the same schedule. Incidentally, the test liquid was prepared according to the preparation method for an eye drop described above. Specifically, to 10 mM phosphate buffer or 1.7% borate buffer, polysorbate 80 and any of the test compounds were added and dissolved or dispersed therein. Then, the pH of the resulting solution or dispersion was adjusted to 5 with sodium hydroxide and/or dilute hydrochloric acid, whereby a test liquid containing each test compound was prepared (only in the case of Compound B, the pH of the test liquid was adjusted to 7).
# 3) After the test liquid was administered, the intraocular pressure of both eyes of each experimental animal was measured at predetermined times (at 2, 4, 6, and 8 hours after administration) (only in the case of Compound B, the intraocular pressure was measured at 1, 2, 4 and 6 hours after administration). Incidentally, before measurement, one drop of 0.4% oxybuprocaine hydrochloride eye drop was instilled into both eyes of each experimental animal to achieve local anesthesia.
# The intraocular pressure reduction degree of each test compound administration group at each measurement time was calculated from the following calculation formula. Among the obtained intraocular pressure reduction degrees at respective measurement times, the maximum value was determined as a maximum intraocular pressure reduction degree.
# Intraocular pressure reduction degree(mmHg)=|IOP (D−t)−IOP(D−0)| Equation 1
# IOP (D-t): Intraocular pressure of the eye into which the test compound was administered at t hours after administration of test compound IOP (D-0): Initial intraocular pressure of the eye into which the test compound was administered
# intraocular pressure [2] = test: Test for intraocular pressure reduction using Japanese white rabbits; type: in vivo; conditions: male Japanese white rabbits; for Intraocular pressure reduction degree: single dose into one eye, at 2 or 4 hours after instillation at which the pressure decreased most, average of 5 to 6 cases; for intraocular pressure lowering action (in words): single instillation, 0.003 to 0.2% (w/v) depending on compound
# Description: In order to examine the usefulness of the present compound as a preventive or therapeutic agent for glaucoma or ocular hypertension, an intraocular pressure lowering effect when the present compound was administered to Japanese white rabbits (sex: male) was evaluated and studied. As the test compound, Compound A, Compound B, Compound C, Compound E, Compound I and Compound J were used. According to the preparation method for an eye drop described above, each test liquid containing Compound A (0.003% (w/v)), Compound B (0.2% (w/v)), Compound C (0.01% (w/v)), Compound E (0.01% (w/v)), Compound I (0.01% (w/v)) or Compound J (0.01% (w/v)) was prepared. Specifically, to 10 mM phosphate buffer or 1.7% borate buffer, polysorbate 80 and any of the test compounds were added and dissolved or dispersed therein. Then, the pH of the resulting solution or dispersion was adjusted to 5 with sodium hydroxide and/or dilute hydrochloric acid, whereby a test liquid containing each test compound was prepared (only in the case of Compound B, the pH of the test liquid was adjusted to 7). 1) Just before any of the test liquids was administered, one drop of 0.4% oxybuprocaine hydrochloride eye drop was instilled into both eyes of each experimental animal to achieve local anesthesia, and the intraocular pressure was measured using an applanation tonometer. This intraocular pressure was determined as an initial intraocular pressure. 2) Any of the prepared test liquids was administered into one eye of each experimental animal in a single dose. The other eye was left untreated, or a vehicle was instilled into the eye according to the same schedule. 3) After the test liquid was administered, the intraocular pressure of both eyes of each experimental animal was measured at predetermined times (at […] after administration). Incidentally, before measurement, one drop of 0.4% oxybuprocaine hydrochloride eye drop was instilled into both eyes of each experimental animal to achieve local anesthesia. The intraocular pressure reduction degree of each test compound administration group at each measurement time was calculated from the following calculation formula. Intraocular pressure reduction degree (mmHg)=|IOP (Ad−t)−IOP(Ad−0) Equation 2 IOP (Ad-t): Intraocular pressure of the eye into which the test compound was administered at t hours after administration of test compound IOP (Ad-0): Initial intraocular pressure of the eye into which the test compound was administered
Structure (SMILES),Maximum intraocular pressure reduction degree (intraocular pressure [1]) [mmHg],Intraocular pressure reduction degree (intraocular pressure [2]; 0.01% (w/v) test liquid) [mmHg],other results
"CCNC(=O)[C@H]1O[C@@H](n2cnc3c(N)nc(C#CCC4CCN(C(=O)OCC)CC4)nc32)[C@H](O)[C@@H]1O [Compound D, 4-{3-[6-amino-9-((2R,3R,4S,5S)-5-ethylcarbamoyl-3,4-dihydroxytetrahydrofuran-2-yl)-9H-purin-2-yl]-2-propynyl}-piperidine-1-carboxylic acid ethyl ester]",2.9,–,–
"Nc1nc(C#CCC2CCN(C(=O)Oc3ccc(F)cc3)CC2)nc2c1ncn2[C@@H]1O[C@H](C(=O)NC2CC2)[C@@H](O)[C@H]1O [Compound F, 4-{3-[6-amino-9-((2R,3R,4S,5S)-5-cyclopropylcarbamoyl-3,4-dihydroxytetrahydrofuran-2-yl)-9H-purin-2-yl]-2-propynyl}-piperidine-1-carboxylic acid 4-fluorophenyl ester]",2.7,–,–
"COc1ccccc1OC(=O)N1CCC(CC#Cc2nc(N)c3ncn([C@@H]4O[C@H](C(=O)NC5CC5)[C@@H](O)[C@H]4O)c3n2)CC1 [Compound G, 4-{3-[6-amino-9-((2R,3R,4S,5S)-5-cyclopropylcarbamoyl-3,4-dihydroxytetrahydrofuran-2-yl)-9H-purin-2-yl]-2-propynyl}-piperidine-1-carboxylic acid 2-methoxyphenyl ester]",2.7,–,–
"Nc1nc(C#CCC2CCN(C(=O)OC3CCC3)CC2)nc2c1ncn2[C@@H]1O[C@H](C(=O)NC2CC2)[C@@H](O)[C@H]1O [Compound J, 4-{3-[6-amino-9-((2R,3R,4S,5S)-5-cyclopropylcarbamoyl-3,4-dihydroxytetrahydrofuran-2-yl)-9H-purin-2-yl]-2-propynyl}-piperidine-1-carboxylic acid cyclobutyl ester]",–,4.1,intraocular pressure lowering action (in words) (intraocular pressure [2]): significantly higher intraocular pressure lowering action among the present compounds
"COc1ccc(OC(=O)N2CCC(CC#Cc3nc(N)c4ncn([C@@H]5O[C@H](C(=O)NC6CC6)[C@@H](O)[C@H]5O)c4n3)CC2)cc1 [Compound H, 4-{3-[6-amino-9-((2R,3R,4S,5S)-5-cyclopropylcarbamoyl-3,4-dihydroxytetrahydrofuran-2-yl)-9H-purin-2-yl]-2-propynyl}-piperidine-1-carboxylic acid 4-methoxyphenyl ester]",2.3,–,–
"CCNC(=O)[C@H]1O[C@@H](n2cnc3c(N)nc(C#CCC4CCN(C(=O)OC(C)C)CC4)nc32)[C@H](O)[C@@H]1O [Compound E, 4-{3-[6-amino-9-((2R,3R,4S,5S)-5-ethylcarbamoyl-3,4-dihydroxytetrahydrofuran-2-yl)-9H-purin-2-yl]-2-propynyl}-piperidine-1-carboxylic acid isopropyl ester]",2.9,2.6,–
"Nc1nc(C#CCC2CCN(C(=O)Oc3ccc(F)c(F)c3)CC2)nc2c1ncn2[C@@H]1O[C@H](C(=O)NC2CC2)[C@@H](O)[C@H]1O [Compound I, 4-{3-[6-amino-9-((2R,3R,4S,5S)-5-cyclopropylcarbamoyl-3,4-dihydroxytetrahydrofuran-2-yl)-9H-purin-2-yl]-2-propynyl}-piperidine-1-carboxylic acid 3,4-difluorophenyl ester]",1.8,1.7,–
"CCNC(=O)[C@H]1O[C@@H](n2cnc3c(N)nc(C#CCC4CCC(C(=O)OC)CC4)nc32)[C@H](O)[C@@H]1O (stereo partly drawn) [Compound B, 4-{3-[6-amino-9-((2R,3R,4S,5S)-5-ethylcarbamoyl-3,4-dihydroxytetrahydrofuran-2-yl)-9H-purin-2-yl]-2-propynyl}-cyclohexane-1-carboxylic acid methyl ester]",2.2,–,Intraocular pressure reduction degree (intraocular pressure [2]; 0.2% (w/v) test liquid (pH 7)): 2.1 mmHg
"CCNC(=O)[C@H]1O[C@@H](n2cnc3c(N)nc(C#CCC4CCN(C(=O)OC)CC4)nc32)[C@H](O)[C@@H]1O [Compound C, 4-{3-[6-amino-9-((2R,3R,4S,5S)-5-ethylcarbamoyl-3,4-dihydroxytetrahydrofuran-2-yl)-9H-purin-2-yl]-2-propynyl}-piperidine-1-carboxylic acid methyl ester]",2.7,2.8,–
"COC(=O)N1CCC(CC#Cc2nc(N)c3ncn([C@@H]4O[C@H](C(=O)NC5CC5)[C@@H](O)[C@H]4O)c3n2)CC1 [Compound A, 4-{3-[6-amino-9-((2R,3R,4S,5S)-5-cyclopropylcarbamoyl-3,4-dihydroxytetrahydrofuran-2-yl)-9H-purin-2-yl]-2-propynyl}-piperidine-1-carboxylic acid methyl ester]",4.9,–,"Intraocular pressure reduction degree (intraocular pressure [2]; 0.003% (w/v) test liquid): 3.8 mmHg; intraocular pressure lowering action (in words) (intraocular pressure [2]): significantly higher intraocular pressure lowering action among the present compounds; intraocular pressure lowering action (in words) (intraocular pressure [1]; 0.1% (w/v) instilled twice a day for 7 days): significantly higher intraocular pressure lowering action among the present compounds; lowering of trough intraocular pressure by repeated instillation (in words) (intraocular pressure [1]; 0.1% (w/v) repeated instillation (BID)): exhibited a high lowering action; trough intraocular pressure value on day 7, lower than that in the vehicle administration group (intraocular pressure [1]; 0.1% (w/v) repeated instillation (BID) for 7 days, difference from vehicle group): 1.0 mmHg"
